Test results: the supplement of paper PMC10307832

Assays:
Assay in all cases: relative viability (nuclei count vs DMSO), 5 days (fraction); higher = more cells survive
Palbociclib + Trametinib = compound: CC(=O)c1c(C)c2cnc(Nc3ccc(N4CCNCC4)cn3)nc2n(C2CCCC2)c1=O [Palbociclib] + CC(=O)Nc1cccc(-n2c(=O)n(C3CC3)c(=O)c3c(Nc4ccc(I)cc4F)n(C)c(=O)c(C)c32)c1 [Trametinib] (partner 0.02 µM)
How it was run: (§1)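 Relative viability equals treated-well nuclei counts divided by vehicle-well nuclei counts. Counts came from 4× images of lung cancer cell lines grown in 1536-well plates for 5 days after pin-tool dosing on the day after seeding. Dosing used one drug alone or a fixed anchor-drug dose plus five library-drug doses (not always all listed) in √10 steps, and values are medians of duplicate plates.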

Palbociclib + Luminespib = compound: CC(=O)c1c(C)c2cnc(Nc3ccc(N4CCNCC4)cn3)nc2n(C2CCCC2)c1=O [Palbociclib] + CCNC(=O)c1noc(-c2cc(C(C)C)c(O)cc2O)c1-c1ccc(CN2CCOCC2)cc1 [Luminespib] (partner 0.01 µM)
How it was run: as §1

Palbociclib + OSI-027 = compound: CC(=O)c1c(C)c2cnc(Nc3ccc(N4CCNCC4)cn3)nc2n(C2CCCC2)c1=O [Palbociclib] + COc1cccc2cc(-c3nc([C@H]4CC[C@H](C(=O)O)CC4)n4ncnc(N)c34)[nH]c12 [OSI-027] (partner 0.5 µM)
How it was run: as §1

Palbociclib + AZD7762 = compound: CC(=O)c1c(C)c2cnc(Nc3ccc(N4CCNCC4)cn3)nc2n(C2CCCC2)c1=O [Palbociclib] + NC(=O)Nc1cc(-c2cccc(F)c2)sc1C(=O)N[C@H]1CCCNC1 [AZD7762] (partner 0.2 µM)
How it was run: as §1

Cell Line | relative viability (Palbociclib + Trametinib; first compound 0.01 µM) | relative viability (Palbociclib + Trametinib; first compound 0.03162 µM) | relative viability (Palbociclib + Trametinib; first compound 0.1 µM) | relative viability (Palbociclib + Trametinib; first compound 0.3162 µM) | relative viability (Palbociclib + Trametinib; first compound 1 µM) | relative viability (Palbociclib + Luminespib; first compound 0.01 µM) | relative viability (Palbociclib + Luminespib; first compound 0.03162 µM) | relative viability (Palbociclib + Luminespib; first compound 0.1 µM) | relative viability (Palbociclib + Luminespib; first compound 0.3162 µM) | relative viability (Palbociclib + Luminespib; first compound 1 µM) | relative viability (Palbociclib + OSI-027; first compound 0.01 µM) | relative viability (Palbociclib + OSI-027; first compound 0.03162 µM) | relative viability (Palbociclib + OSI-027; first compound 0.1 µM) | relative viability (Palbociclib + OSI-027; first compound 0.3162 µM) | relative viability (Palbociclib + OSI-027; first compound 1 µM) | relative viability (Palbociclib + AZD7762; first compound 0.01 µM) | relative viability (Palbociclib + AZD7762; first compound 0.03162 µM) | relative viability (Palbociclib + AZD7762; first compound 0.1 µM) | relative viability (Palbociclib + AZD7762; first compound 0.3162 µM) | relative viability (Palbociclib + AZD7762; first compound 1 µM)
NCI-H460 | 0.0946 | 0.116 | 0.0577 | 0.185 | 0.0348 | 0.0282 | 0.0413 | 0.0309 | 0.0231 | 0.026 | 0.708 | 0.531 | 0.366 | 0.376 | 0.159 | 0.591 | 0.512 | 0.557 | 0.484 | 0.178
NCI-H522 | 0.818 | 0.576 | 0.776 | 0.797 | 0.853 | 1.2 | – | 1.19 | 1.19 | 1.18 | 0.772 | 0.606 | 0.777 | 0.765 | 0.765 | 1.01 | 0.453 | 0.934 | 0.843 | 0.814
NCI-H596 | 0.793 | 0.632 | 0.875 | 0.757 | 0.954 | 0.91 | – | 0.968 | 0.958 | 1.04 | 0.681 | – | 0.761 | 0.649 | 0.809 | 1.15 | 0.96 | 1.1 | 1.01 | 1.09
NCI-H647 | 0.502 | 0.305 | 0.428 | 0.346 | 0.272 | 0.0934 | 0.13 | 0.137 | 0.209 | 0.253 | 0.788 | 0.496 | 0.652 | 0.636 | 0.362 | 0.645 | 0.3 | 0.368 | 0.326 | 0.197
NCI-H650 | 1.02 | – | 0.771 | 0.915 | 0.792 | 0.921 | 0.613 | 0.629 | 0.793 | 0.609 | 0.53 | 0.309 | 0.393 | 0.376 | 0.331 | 0.949 | – | 0.978 | 0.921 | 0.686
NCI-H727 | 0.366 | 0.336 | 0.397 | 0.387 | 0.403 | 0.309 | 0.293 | 0.285 | 0.352 | 0.405 | 0.468 | 0.477 | 0.367 | 0.494 | 0.438 | 0.593 | 0.511 | 0.584 | 0.447 | 0.461
NCI-H838 | 0.643 | 0.477 | 0.396 | 0.376 | 0.175 | 0.274 | 0.346 | 0.267 | 0.257 | 0.265 | 0.318 | 0.348 | 0.308 | 0.317 | 0.185 | 0.85 | 0.891 | 0.815 | 0.862 | 0.693
NCI-H1355 | 0.433 | 0.448 | 0.422 | 0.391 | 0.363 | 0.74 | 0.776 | 0.811 | 0.568 | 0.521 | 0.45 | 0.359 | 0.33 | 0.282 | 0.24 | 0.672 | 0.572 | 0.733 | 0.697 | 0.571
